From ChEMBL document CHEMBL1201862, “PubChem BioAssay data set” (2004) come the findings set out here.

Calls of active or inactive are those of the source.

Assay [1] in a line: NIH-3T3 fibroblast cytotoxicity, dose response, cytotoxicity control, cell-based, fluorescence, Alamar Blue, secondary assay (AID 2327).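 Also: NIH-3T3 mouse fibroblasts cultured with fluconazole at 8 µg/mL.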 The format is functional. A general note: Resazurin is reduced to fluorescent resorufin, in cell work by metabolically active cells.
The nature of assay [2]: growth suppression of beta-catenin-knockout colon cells, dose response, cell-based, HCT116, human colon tumor (AID 1045).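 Also: HCT116 colon tumor cells with beta catenin knocked out; cells exposed to compound for 60 hours.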 The class given is functional.
For assay [3], the target named is T1, Sentrin-specific protease 6 (Homo sapiens, UniProt Q9GZR1).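 Also: Luminescence-based dose-response confirmatory assay of SENP6 inhibition, following up an ultra-high-throughput screen.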
T1 sequence (Q9GZR1 whole entry): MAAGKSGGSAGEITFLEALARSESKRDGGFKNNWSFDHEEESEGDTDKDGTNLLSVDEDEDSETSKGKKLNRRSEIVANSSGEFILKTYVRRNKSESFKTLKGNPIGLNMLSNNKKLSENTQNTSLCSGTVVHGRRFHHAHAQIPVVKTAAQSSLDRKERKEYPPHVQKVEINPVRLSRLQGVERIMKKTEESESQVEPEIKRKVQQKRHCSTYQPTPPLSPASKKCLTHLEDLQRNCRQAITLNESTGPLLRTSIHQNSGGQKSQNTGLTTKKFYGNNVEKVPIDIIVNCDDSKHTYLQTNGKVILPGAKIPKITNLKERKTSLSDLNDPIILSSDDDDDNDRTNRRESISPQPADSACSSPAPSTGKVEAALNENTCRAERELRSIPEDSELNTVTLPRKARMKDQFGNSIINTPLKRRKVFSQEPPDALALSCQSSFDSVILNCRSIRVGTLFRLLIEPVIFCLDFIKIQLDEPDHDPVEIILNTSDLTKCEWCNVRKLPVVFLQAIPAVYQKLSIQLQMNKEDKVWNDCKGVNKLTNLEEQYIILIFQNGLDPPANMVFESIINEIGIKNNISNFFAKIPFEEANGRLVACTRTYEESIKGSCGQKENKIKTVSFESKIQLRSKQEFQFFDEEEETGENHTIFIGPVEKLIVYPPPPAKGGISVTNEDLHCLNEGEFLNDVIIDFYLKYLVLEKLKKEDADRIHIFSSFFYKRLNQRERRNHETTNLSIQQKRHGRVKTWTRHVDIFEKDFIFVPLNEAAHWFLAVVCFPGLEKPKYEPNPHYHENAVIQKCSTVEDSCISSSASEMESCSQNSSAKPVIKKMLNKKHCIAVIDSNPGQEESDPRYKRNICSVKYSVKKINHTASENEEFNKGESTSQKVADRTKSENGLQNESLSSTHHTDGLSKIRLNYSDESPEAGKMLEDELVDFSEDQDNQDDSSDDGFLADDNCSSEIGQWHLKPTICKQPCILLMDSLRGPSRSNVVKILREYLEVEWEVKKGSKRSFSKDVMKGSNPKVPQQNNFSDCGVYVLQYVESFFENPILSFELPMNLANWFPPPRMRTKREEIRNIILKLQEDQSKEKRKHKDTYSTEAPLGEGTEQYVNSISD
The format is functional.

Assay [4] concerns the target ATP-dependent molecular chaperone HSP82 (Candida albicans (strain WO-1) (Yeast), UniProt C4YTQ8). Put plainly: loss of DOC-induced GRE-beta-galactosidase reporter signal, dose response, Hsp90 inhibitor project, S. cerevisiae, luminescence (AID 2400).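 Also: beta-galactosidase luminescence from glucocorticoid response element reporter as proxy for Hsp90 function; inhibitor potency where signal loss means Hsp90 inhibition.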 The format is functional, cell-based.
Assay [5] deals with Tyrosyl-DNA phosphodiesterase 2 (Homo sapiens, UniProt O95551). The assay can be described thus: human TDP2 enzyme inhibitors, dose response, biochemical, epi absorbance, IC50 (AID 743297).
Chain of Tyrosyl-DNA phosphodiesterase 2 (O95551 whole entry): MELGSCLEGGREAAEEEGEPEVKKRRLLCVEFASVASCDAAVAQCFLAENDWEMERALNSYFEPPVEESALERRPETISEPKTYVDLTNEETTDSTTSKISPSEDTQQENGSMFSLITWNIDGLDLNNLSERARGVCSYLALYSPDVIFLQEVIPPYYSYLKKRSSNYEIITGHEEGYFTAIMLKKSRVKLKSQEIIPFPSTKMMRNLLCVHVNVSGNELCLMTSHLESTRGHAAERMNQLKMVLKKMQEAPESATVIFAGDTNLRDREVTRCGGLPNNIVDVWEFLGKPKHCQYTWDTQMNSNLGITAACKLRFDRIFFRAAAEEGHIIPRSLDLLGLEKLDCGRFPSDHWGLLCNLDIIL
For a further assay, the system named is Streptococcus. The assay can be described thus: Group A Streptococcus viability loss, dose response, counter-screen for streptokinase expression inhibitor project, luminescence, BacTiterGlo (AID 1915).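 Also: potency for reduction of bacterial viability or growth.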 The class given is functional, organism-based. For orientation: A counterscreen serves to expose hits that act by an unwanted route or on another target.
For a further assay, the target named is T2, Hexokinase HKDC1 (Homo sapiens, UniProt Q2TB90).
T2 sequence (Q2TB90 whole entry): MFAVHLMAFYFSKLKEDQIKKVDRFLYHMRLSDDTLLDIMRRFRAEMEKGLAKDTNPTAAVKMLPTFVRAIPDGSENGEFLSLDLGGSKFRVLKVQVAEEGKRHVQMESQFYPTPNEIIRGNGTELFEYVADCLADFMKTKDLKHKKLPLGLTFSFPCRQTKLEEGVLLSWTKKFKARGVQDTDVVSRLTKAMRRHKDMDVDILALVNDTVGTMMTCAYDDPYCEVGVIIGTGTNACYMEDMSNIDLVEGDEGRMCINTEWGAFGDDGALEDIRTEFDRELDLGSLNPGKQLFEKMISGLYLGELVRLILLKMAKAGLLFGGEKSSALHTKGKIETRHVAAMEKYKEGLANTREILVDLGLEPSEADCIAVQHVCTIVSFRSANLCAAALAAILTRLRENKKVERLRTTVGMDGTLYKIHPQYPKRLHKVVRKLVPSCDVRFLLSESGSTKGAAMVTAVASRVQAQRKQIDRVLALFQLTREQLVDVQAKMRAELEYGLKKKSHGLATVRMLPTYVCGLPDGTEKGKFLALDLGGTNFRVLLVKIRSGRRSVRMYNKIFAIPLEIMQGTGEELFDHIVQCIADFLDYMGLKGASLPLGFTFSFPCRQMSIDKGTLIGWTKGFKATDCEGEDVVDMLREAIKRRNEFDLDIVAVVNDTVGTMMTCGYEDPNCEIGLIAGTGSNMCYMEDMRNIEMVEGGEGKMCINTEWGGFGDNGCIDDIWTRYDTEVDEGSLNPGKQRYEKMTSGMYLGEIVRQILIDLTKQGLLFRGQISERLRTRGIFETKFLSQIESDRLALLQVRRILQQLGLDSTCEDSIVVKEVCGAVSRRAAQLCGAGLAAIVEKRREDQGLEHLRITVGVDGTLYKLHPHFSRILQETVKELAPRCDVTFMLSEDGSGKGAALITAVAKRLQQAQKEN
The assay can be described thus: HKDC1 hexokinase inhibitors, dose response, biochemical, W721R variant (AID 504729). The class given is functional.

The next assay concerns the target Genome polyprotein (dengue virus type 2, UniProt P29990). The assay can be described thus: Dengue-2 NS5 methyltransferase inhibitors, primary screen, biochemical, confirmation dose response (AID 588689). The class given is functional.
In assay [6] the target is Mitochondrial peptide methionine sulfoxide reductase (Bos taurus, UniProt P54149). The class given is functional.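 Also: absorbance read-out, biochemical high-throughput dose-response screen for MsrA inhibitors, confirmatory; recombinant bovine MsrA coupled to E. coli TrxB with NADPH and selenocystamine; potency is for inhibitors of MsrA activity on DMSO substrate.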
Chain of Mitochondrial peptide methionine sulfoxide reductase (P54149 whole entry): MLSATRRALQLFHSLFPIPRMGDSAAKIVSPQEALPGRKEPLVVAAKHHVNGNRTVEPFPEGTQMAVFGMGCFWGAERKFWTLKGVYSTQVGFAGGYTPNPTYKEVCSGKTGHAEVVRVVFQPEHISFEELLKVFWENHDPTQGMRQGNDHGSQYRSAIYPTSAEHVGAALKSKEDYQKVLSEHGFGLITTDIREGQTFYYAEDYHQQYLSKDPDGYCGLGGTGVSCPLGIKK

Chain of ATP-dependent molecular chaperone HSP82 (C4YTQ8 whole entry): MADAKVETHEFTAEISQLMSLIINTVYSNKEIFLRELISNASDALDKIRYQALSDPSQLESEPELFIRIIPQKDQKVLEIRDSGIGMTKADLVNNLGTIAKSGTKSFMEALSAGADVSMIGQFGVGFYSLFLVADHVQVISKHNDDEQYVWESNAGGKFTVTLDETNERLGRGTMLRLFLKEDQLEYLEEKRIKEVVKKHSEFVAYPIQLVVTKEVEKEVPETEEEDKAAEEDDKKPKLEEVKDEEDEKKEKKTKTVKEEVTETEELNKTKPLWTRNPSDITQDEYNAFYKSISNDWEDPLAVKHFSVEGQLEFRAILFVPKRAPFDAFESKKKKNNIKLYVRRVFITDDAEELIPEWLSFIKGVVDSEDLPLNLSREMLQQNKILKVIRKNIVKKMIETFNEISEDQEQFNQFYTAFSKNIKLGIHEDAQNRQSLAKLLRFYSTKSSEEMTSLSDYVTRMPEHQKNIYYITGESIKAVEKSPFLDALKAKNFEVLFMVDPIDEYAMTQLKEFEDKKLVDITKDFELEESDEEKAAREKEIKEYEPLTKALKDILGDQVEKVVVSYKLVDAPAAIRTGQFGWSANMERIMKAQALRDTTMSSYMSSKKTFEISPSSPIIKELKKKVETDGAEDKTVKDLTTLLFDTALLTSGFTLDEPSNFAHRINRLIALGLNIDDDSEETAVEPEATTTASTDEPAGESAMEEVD
Chain of Genome polyprotein (P29990 2492-3391 limits assumed): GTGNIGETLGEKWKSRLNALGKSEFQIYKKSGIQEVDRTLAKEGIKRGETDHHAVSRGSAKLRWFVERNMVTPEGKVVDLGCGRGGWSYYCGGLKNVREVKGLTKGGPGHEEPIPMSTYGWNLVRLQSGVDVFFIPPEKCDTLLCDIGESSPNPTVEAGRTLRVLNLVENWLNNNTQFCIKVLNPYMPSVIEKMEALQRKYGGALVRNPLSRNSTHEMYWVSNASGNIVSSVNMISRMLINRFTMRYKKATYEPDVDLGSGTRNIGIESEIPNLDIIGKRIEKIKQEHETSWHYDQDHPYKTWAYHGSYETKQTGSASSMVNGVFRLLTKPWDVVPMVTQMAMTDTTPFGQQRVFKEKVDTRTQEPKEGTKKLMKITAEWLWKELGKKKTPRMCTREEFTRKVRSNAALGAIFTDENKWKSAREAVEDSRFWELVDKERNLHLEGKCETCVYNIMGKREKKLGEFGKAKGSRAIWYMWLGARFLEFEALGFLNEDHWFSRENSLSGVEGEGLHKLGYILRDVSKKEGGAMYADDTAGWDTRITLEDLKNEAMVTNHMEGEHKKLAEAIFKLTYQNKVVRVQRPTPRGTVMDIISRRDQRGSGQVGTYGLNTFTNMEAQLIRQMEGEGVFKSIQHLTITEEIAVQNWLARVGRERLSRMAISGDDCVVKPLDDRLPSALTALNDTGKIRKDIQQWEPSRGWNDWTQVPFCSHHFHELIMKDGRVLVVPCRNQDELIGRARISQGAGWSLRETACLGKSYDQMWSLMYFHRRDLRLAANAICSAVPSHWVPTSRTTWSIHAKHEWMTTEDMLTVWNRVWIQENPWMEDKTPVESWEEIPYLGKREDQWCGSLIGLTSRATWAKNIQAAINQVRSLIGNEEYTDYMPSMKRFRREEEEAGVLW

As usually defined, the EC50 is the concentration at which the effect is half-maximal. The term IC50 denotes the concentration that gives 50% inhibition. As to `Cc1ccc(NC2=CC(=O)C(=O)c3ccccc32)cc1`, the results for the EC50 in [1], in assay [2] and in [4] were 20.5 µM (active), 4.52 µM (active) and 40.7 µM (active), respectively. Besides, the IC50 in assay [3] was 13.5 µM (active); in assay [5], 26.2 µM (inactive).
Consider `O=C(O)c1ccc(S(=O)(=O)/N=C2\C=C(Nc3ccccc3F)C(=O)c3ccccc32)cc1`, for which the EC50 with Streptococcus is 4.05 µM (active). Also, the IC50 is 3 µM (active) at Hexokinase HKDC1, 11.2 µM (active) at Genome polyprotein and 14.2 µM (inactive) in [6].
